Results: patent US20250263439A1, “HETERODIMERIC PEPTIDE REAGENTS AND METHODS” (REGENTS OF THE UNIVERSITY OF MICHIGAN, priority 2018, published 2025)
Several values for one entry are separate records, joined by “and”; a condition that tells them apart may be missing. Equal values may be shown once. Entries after “also recorded” stand apart in the source; their conditions may differ.

Experiments:
SKBr3 cells [1] = assay: Heterodimer internalization in SKBr3 cells over time (confocal); assay type: cell-based, human
Description: Using confocal microscopy, images were collected over time to evaluate heterodimer internalization. […] Binding by anti-EGFR-AF568 (yellow) and anti-ErbB2-AF488 (green) to the surface (arrows) of the same cells is shown for comparison. On the merged images, a Pearson's correlation coefficient was measured for the heterodimer with the anti-EGFR antibody (ρ=0.77) and the anti-ErbB2 (ρ=0.65) antibody. […] The DAPI images highlight the location of cell nuclei prior to heterodimer incubation, FIG. 3B. Binding of QRH*-KSP*-E3-Cy5.5 (red) to the cell surface is seen at […]. The heterodimer starts to internalize at 4 min, and complete internalization is seen at 40 min.

[2] = test system: EGFR and ErbB2 mediated signaling; assay: Effect on downstream cell signaling in SKBr3 cells (Western blot); assay type: cell-based, human; details: heterodimer at 1, 5, and 20 μM
Description: The effect of heterodimer binding on downstream signaling was evaluated in SKBr3 cells. SKBr3 cells were seeded in 6-well flat-bottom plates. […] EGF (#E9644, Sigma) was reconstituted to 1 mg/mL using 10 mM acetic acid, diluted with 0.1% BSA, and added to SKBr3 cells at a concentration of 100 ng/mL. Lapatinib (CDS022971, Sigma) was diluted to 100 nM in DMSO and PBS from 1 mg/mL stock solution, and was added to the cells incubated with heterodimer at concentrations of 1, 5, and 20 μM in separate wells.

OE33 xenograft tumors = assay: In vivo competition with unlabeled peptide monomers; set-up: species or system mice; details: two hours after heterodimer injection
Description: In vivo heterodimer specificity was assessed by competition with 3000 μM of unlabeled peptide monomer or a mixture of two monomers diluted in 50 μL of PBS injected 20 min beforehand in tumor-bearing mice (n=4 per group). Blocking studies were carried out by injecting unlabeled QRH*, KSP*, and both monomers together to validate in vivo specificity. Images were collected at two hours after heterodimer injection when peak uptake was expected. The ratio of fluorescence intensity in tumor was calculated using regions of interest (ROI), and the results were presented as mean±standard deviation (SD).

[3] = test system: Barrett's neoplasia (HGD and EAC); assay: Confocal microscopy of human esophageal specimens ex vivo
Description: The fluorescence intensities from the human esophageal specimens were fit according to 4 histological classifications, including squamous (SQ), Barrett's esophagus (BE), high-grade dysplasia (HGD), and esophageal adenocarcinoma (EAC), and used a one-way ANOVA and used Tukey's multiple comparisons. Co-localization of peptide and antibody binding was evaluated using Pearson's correlation coefficient.
Using confocal microscopy, specific heterodimer binding to Barrett's neoplasia was validated on human specimens ex vivo. Formalin-fixed, paraffin-embedded (FFPE) specimens of human esophagus were obtained from the archived tissue bank in the Department of Pathology, University of Michigan. The tissues were cut into […], deparaffinized, and rehydrated using standard conditions. Two-step acidic and protease-based antigen retrieval was performed. The sections were blocked with protein serum for 10 min at RT followed by rinsing with PBS, and then incubated with the heterodimer (0.5 μM) for ten min in dark conditions at RT. The sections were then washed for three min 3× with PBS and further incubated sequentially with 1:200 dilution of EGFR monoclonal antibody (H11, #MA5-13070, Invitrogen) and 1:500 goat anti-mouse IgG (H+L) AF-568-labeled secondary antibody (#A-11004, Thermo Fisher Scientific), 1:500 dilution of ErbB2 primary antibody (#29D8, rabbit monoclonal antibody #2165S, Cell Signaling Inc), and 1:1000 goat anti-rabbit IgG (H+L) AF-488-labeled secondary antibody (#A11008, Life Technologies Corp). Each antibody was incubated for 1 hour at RT. Sections were washed with TBST 3× and mounted with Prolong Gold reagent containing DAPI (Invitrogen) using #1 cover glass ([…]). Confocal fluorescence microscopy was performed using DAPI, AF488, AF568 and Cy5.5 filter sets. Image quantification was performed by placing 3 boxes with dimensions of 20×20 μm^2 completely within cells found in the epithelium. Mean fluorescence intensities were measured using custom Matlab software (Mathworks). Regions of saturated intensities were avoided.

OE33 cells = assay: Apparent dissociation constant by flow cytometry with OE33 cells; assay type: binding, human
Description: The apparent dissociation constant (Kd) was measured to assess binding affinity of the heterodimer to OE33 cells. The heterodimer was serially diluted in PBS at concentrations of about 0, 10, 25, 50, 100, and 200 nM with about […] at 4° C. for one hour and washed with cold PBS. The mean fluorescence intensities were measured with flow cytometry (BD LSRII, BD Biosciences). The equilibrium dissociation constant Kd 1/Ka was calculated with a least-squares fit of the data to the nonlinear equation I=(I0+ImaxKa[X])/(I0+Ka[X]). I0 and Imax are the initial and maximum fluorescence intensities, corresponding to no peptide and at saturation, respectively, and [X] represents the concentration of bound peptide. Prism 5.0 software (Graphpad Inc.) was used to calculate Kd and Ka.

SKBr3 cells [4] = assay: Confocal microscopy binding of Cy5.5-labeled heterodimer linker configurations to SKBr3 cells; assay type: cell-based, human; details: linkers E2, Hex, E3, E6, E10
Excerpt: The two monomers were combined in a heterodimer configuration using a variable linker designed with either a PEG spacer that ranged in size from 17-74 atoms or a hydrophobic 6-aminohexonic acid linker in the α-, ξ-amino groups of the second lysine. The linker length was varied to determine the optimal spacing between monomers to maximize binding to the intended targets. Using confocal microscopy, binding for each Cy5.5-labeled heterodimer configuration to human breast cancer cells SKBr3 that overexpress both EGFR and ErbB2 was evaluated, FIG. 1B.
Hydrophilicity was good as well. Western blot analysis was used to show relative EGFR and ErbB2 expression levels, FIG. 1D. Western blot was performed by lysing cells in Pierce® RIPA lysis buffer containing Halt™ protease inhibitor cocktail (#87786, Thermo Scientific) for 30 min on ice. The lysates were centrifuged at 10,000 rpm for 10 min at 4° C. A BSA protein assay kit (#23227, Thermo Scientific) was used to quantify protein concentration in the supernatant. Aliquots of protein (10 μL) were used for electrophoresis on NuPAGE™ 4-12% Bis-Tris gels (#17031471, Invitrogen) followed by electrophoretic transfer onto membranes (#ISEQ00010, Merck Millipore Ltd). […]

Substance: heterodimer of QRHKPRE (SEQ ID NO: 1) and KSPNPRF (SEQ ID NO: 2) with E3 (triethyleneglycol) linker, Cy5.5 label [QRH*-KSP*-E3-Cy5.5]
- time at which heterodimer starts to internalize (SKBr3 cells [1]): 4 min and 8 to 20 min
- time of complete internalization / strong signal inside cells (SKBr3 cells [1]): 40 min
- phosphorylation of EGFR (p-EGFR) and ErbB2 (p-ErbB2) [2]: no change
- phosphorylation of downstream AKT (p-AKT) and ERK (p-ERK) [2]: no downstream change
- tumor signal after prior injection of unlabeled QRH*, KSP*, or both (OE33 xenograft tumors): reduction of signal
- staining of high-grade dysplasia (HGD) and esophageal adenocarcinoma (EAC) ([3]; human specimens ex vivo): increased signal; also recorded: increased staining intensity
- staining of squamous (SQ) and Barrett's esophagus (BE) ([3]; human specimens ex vivo): Minimal fluorescence signal; also recorded: minimal staining
- mean fluorescence intensity of neoplasia compared with BE and SQ ([3]; n=31, 8, 23, and 12 specimens of SQ, BE, HGD, EAC): significantly greater mean fluorescence intensity
- improved binding affinity compared with either monomer alone (OE33 cells): 2 fold
- Kd (OE33 cells; flow cytometry, 4° C.): 23 nM
- mean signal among heterodimer linker configurations (SKBr3 cells [4]): largest signal
